Entries after “also recorded” stand apart in the source; their conditions may differ.
Columns and labels:
[1] = tested on: microglia-neuron co-cultures
[2] = tested on: neurons; test: TUNEL staining of neurons from Aβ1-42-treated microglia-neuron co-cultures; format: cell-based, rat; conditions: 5 μM Aβ1-42 + 10 ng/ml interferon γ, 24 hours
Protocol: DNA cleavage in apoptotic nuclei was detected with In Situ Cell Death Detection Kit as described by the manufacturer (Roche Molecular Biochemicals, Indianapolis, Ind.). Briefly, cells were fixed with paraformaldehyde (4% in PBS, pH 7.4) and permeablized (0.1% Triton X-100 in 0.1% sodium citrate). After incubation for 1 hr at 37° C. in terminal deoxynucleotidyl transferase (TdT) reaction mixture, signals were visualized under a fluorescence microscope (excitation/emission wavelengths: 450-500 nm/515-565 nm). Samples were further blotted with alkaline phosphatase-conjugated anti-fluorescein antibody. Following color reaction, samples were analyzed under a light microscope.

[3] = tested on: nitric oxide (NO) production; test: Nitrite measurement (Griess reaction) in LPS-treated microglia-neuron co-cultures; format: cell-based, rat; conditions: for effect on nitrite accumulation / NO production: 100 ng/ml LPS, 48 hours, same concentrations as for neuron survival
[4] = tested on: primary cortical neurons; test: Neuron survival of primary cortical neurons treated with SIN-1; format: cell-based, rat; conditions: 50 μM SIN-1, 2 μM FeTMPyP, 48 hr
Protocol: To validate the specificity and effectiveness of the peroxynitrite decomposition catalyst FeTMPyP, this catalyst was further tested with neuron cultures treated with SIN 1, an exogenous NO and superoxide donor that, consequently, generates peroxynitrite under physiological conditions [Hogg, 1992]. Primary cortical neurons were treated with 50 μM SIN-1 in the presence or absence of 2 μM FeTMPyP for 48 hr.
Neuron cultures were derived from […] (embryonic day 17) Fishes 344 rat cerebral cortices detailed previously (Banker and Goslin, 1988; Rozovsky et al., 1994) and plated at 5×10^4 viable cells/well is poly-D-lysine (Sigma) coated 24-well plates (Costar). […]
Following treatment, culture inserts containing microglia were removed and neurons were stained with 10 jig/ml fluorescein diacetate (FDA, Sigma) for 10 min. […] Since neuron deaths occur primarily in the region directly underneath the microglia-containing culture inserts (see FIG. 6D), for quantification, eight images at the center of each well were taken with a Nikon TE300 fluorescent microscope and analyzed with the IP Lab imaging software (version 3.54, Scanalytics, Fairfax, Va.). Viable neurons were quantified by the area covered by green fluorescence, after the establishment of a linear relationship between the numbers of stained cells and the green fluorescent area. […]

[5] = tested on: microglia-neuron co-cultures; conditions: 100 ng/ml LPS
[6] = tested on: nitric oxide (NO) production; test: Nitrite measurement in microglia-neuron co-cultures treated with Aβ1-42 and interferon γ; format: cell-based, rat; conditions: 5 μM Aβ1-42 + 10 ng/ml interferon γ, 48 hour; FeTMPyP 2 μM
Protocol: Nitric oxide (NO) production was determined indirectly through the assay of nitrite (NO2), a stable metabolite of NO, based on the Griess reaction (Huygen, 1970; Green et al., 1982; Ding et al., 1988). Briefly, a 50 μl aliquot of conditioned media was mixed with an equal volume of Griess reagent (0.1% N-(1-naphthyl)ethylenediamine dihydrochloride, 1% sufanilamide, and 2.5% phosphoric acid, all from Sigma), and incubated for 10 min at 22° C. The absorbance was read at 550 nm on a microtiter plate reader (Spectra MAX 250, Molecular Devices, Sunnyvale, Calif.). Nitrite concentrations were calculated from a standard curve of NaNO2 (Sigma) ranging from 0 to 100 μM. Background NO2 was subtracted from the experimental values.

[7] = tested on: microglia cells; test: Superoxide generation by LPS-activated microglia (EPR, DMPO spin trap); format: cell-based, rat; conditions: 100 ng/ml LPS
Protocol: To monitor the generation of superoxide by activated microglia, Electron Paramagnetic Resonance (EPR) measurements were performed with 5,5-dimethyl-1-pyrroline-N-oxide (DMPO) as a superoxide spin trap. To confirm that the EPR signal is caused by superoxide, either superoxide dismutase (SOD) or DMSO, which competes with DMPO for hydroxyl radical, were added to the microglia cells together with LPS.
For EPR measurements, microglia cells (100,000) with or without LPS treatment were incubated in 200 μl culture medium containing 120 mm DMPO. After 15 minutes, the medium was removed and analyzed by EPR. EPR spectra were recorded on a Bruker ECS106 spectrometer with the following settings: receiver gain: 5×10^5; microwave power: 20 mW; microwave frequency: 9.81 GHz; modulation amplitude: 1 G; time constant: 1.3 seconds; scan time: 87 seconds; scan width: 80 G. The DMPO-OH signal generated from […] were quantified by comparison with TEMPOL standard after doubly integration of both signals. All scans shown are an accumulation of 7 scans.

[8] = tested on: TNF-α secretion; test: TNF-α Elisa of culture supernatants of LPS-treated microglia-neuron co-cultures; format: cell-based, rat; conditions: 100 ng/ml LPS, 48 hours; for effect on TNF-α secretion: PEN 500 μM, THA 200 μM
Protocol: Levels of secreted TNF-α in culture supernatants were determined by an enzyme-linked immuno-sorbent assay (Elisa) kit following manufacturer's instructions (BioSource International, Camarillo, Calif.).

Compound: Aβ1-42: amyloid β-peptide 1-42, aggregated (fibrillar), applied with 10 ng/ml interferon γ as priming factor
- death of neurons [1]: over 80%
- neurotoxicity in the absence of microglia [1]: did not result in neurotoxicity
- TUNEL-labeled neurons [2]: majority

Compound: C[n+]1ccc(-c2c3nc(c(-c4cc[n+](C)cc4)c4ccc([n-]4)c(-c4cc[n+](C)cc4)c4nc(c(-c5cc[n+](C)cc5)c5ccc2[n-]5)C=C4)C=C3)cc1.[Cl-].[Fe+3] [FeTMPyP, 5,10,15,20-Tetrakis(N methyl-4′-pyridyl)porphinato iron (III) chloride]
- effect on nitrite accumulation / NO production [3]: without decreasing NO production
- protection of neurons against SIN-1 induced peroxynitrite toxicity [4]: effectively protected
- optimal concentration of protective action against LPS-induced microglial neurotoxicity ([5]; dose-dependent): 2 µM
- effect on nitric oxide production [6]: without compromising nitric oxide production

Compound: Lipopolysaccharide [LPS]
- beginning of nitrite generation [3]: 6 h
- peak of nitrite generation [3]: approximately 14 hours
- peak of superoxide generation [7]: 12 h

Compound: Cl.O=S(=O)([O-])c1ccc(-c2c3nc(c(-c4ccc(S(=O)(=O)O)cc4)c4ccc([nH]4)c(-c4ccc(S(=O)(=O)O)cc4)c4nc(c(-c5ccc(S(=O)(=O)O)cc5)c5ccc2[nH]5)C=C4)C=C3)cc1.[Fe] [FeTPPS, 5,10,15,20-Tetrakis(4-sulfonatophenyl)prophyrinato iron (III) chloride]
- effect on nitrite accumulation / NO production [3]: without decreasing NO production

Compound: CNC(=N)NCCC[C@H](N)C(=O)O [L-NMMA, N^G-Monomethyl-L-arginine]
- effect on nitrite accumulation / NO production [3]: completely blocked
- reduction of TNF-α secretion ([8]; 1 mM L-NMMA): 35%
- viable neurons ([5]; 48 hours, 1 mM L-NMMA added at the same time with LPS): 92.4±7.4 % of control

Compound: O=C1CCC(N2C(=O)c3ccccc3C2=O)C(=O)N1 (stereo not drawn) [thalidomide]
- effect on nitrite accumulation / NO production [3]: inhibited
- effect on TNF-α secretion [8]: inhibited

Compound: CC(=O)CCCCn1c(=O)c2c(ncn2C)n(C)c1=O [pentoxifylline]
- effect on nitrite accumulation / NO production [3]: little effect; also recorded: did not decrease nitrite/NO generation
- effect on TNF-α secretion [8]: inhibits
